# Results: patent US12478574B2, “Oral care compositions” (Colgate-Palmolive Company, priority 2016, dated 2025)
# Assay: Atomic Absorption analysis of top and bottom layers for Zn2+
# Format: physicochemical
# Conditions: overall 1% ZnCl2 (4800 ppm)
# Procedure: Results are similar with Zn^2+ as the cation. […] The concentration of Zn^2+ in the top layer was measured as 1400 ppm Zn^2+ while the bottom was 8800 ppm, i.e., 6.3 fold higher concentration vs. the top.
smiles,measurement,value
[Cl-].[Cl-].[Zn+2] [ZnCl2],"Zn2+ concentration, bottom vs. the top",6.3 fold
same,concentration of Zn2+ in the bottom layer,8800 ppm
same,concentration of Zn2+ in the top layer,1400 ppm
